This note sets out measurements from US10227290B2, “Glycosphingolipids for use in modulating immune responses” (The Regents of the University of California, priority 2012, dated 2019).

For the assay, the target named is T1, Mouse CD1d (mCD1d) tetramer / TCR of NKT cell hybridomas (Mus musculus, UniProt P11609).
T1 construct: purchased NIH Tetramer Core Facility
T1 sequence (P11609 19-297 limits assumed): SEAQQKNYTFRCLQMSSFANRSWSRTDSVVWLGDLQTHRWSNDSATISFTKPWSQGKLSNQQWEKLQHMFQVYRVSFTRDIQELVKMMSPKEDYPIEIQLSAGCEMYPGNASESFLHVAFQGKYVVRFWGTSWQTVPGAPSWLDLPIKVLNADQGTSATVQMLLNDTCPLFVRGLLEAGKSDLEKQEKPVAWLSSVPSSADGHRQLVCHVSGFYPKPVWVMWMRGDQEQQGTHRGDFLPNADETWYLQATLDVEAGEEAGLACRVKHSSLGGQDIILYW
T1 sequence (P01887 21-119 partner): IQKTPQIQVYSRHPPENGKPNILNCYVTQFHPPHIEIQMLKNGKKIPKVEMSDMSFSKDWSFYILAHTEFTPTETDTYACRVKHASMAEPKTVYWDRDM
Nature of the assay: Staining of NKT cell hybridomas with sphingolipid-loaded mCD1d tetramers (flow cytometry). Format: binding. As to conditions: mCD1d tetramer loaded with the sphingolipid. Here is the method: FIGS. 4A-4C illustrate that α-GalCerBf binds CD1d and activates murine NKT cells in vitro. FIG. 4A: NKT cell hybridomas (see Example 4) were stained with anti-CD3 antibodies, and empty mCD1d tetramers or CD1d tetramers were loaded with α-GalCerBf or KRN7000. Flow cytometry plots representative of three independent experiments are shown. FIG. 4B: Hybridomas were cultured with BMDCs (bone marrow-derived dendritic cells) pre-pulsed with LPS or LPS+α-GalCerBf in the presence of control Ig or anti-CD1d blocking antibodies. IL-2 secretion was measured in supernatants 16 hr later. Data are representative of three independent experiments. FIG. 4C: Liver mononuclear cells were cultured with splenocytes plus increasing amounts of α-GalCerBf in the presence or absence of anti-CD1d blocking antibodies. IFN-γ secretion was measured in supernatants on day 5. Data are representative of three independent experiments.
The reagents used in Examples 4 and 5 for the immunology studies were as follows. PBS-57 loaded mCDld tetramers, which were used for mouse experiments, and unloaded mCD1d monomers were obtained from the NIH Tetramer Core Facility. For loading, monomers were incubated with KRN7000 or α-GalCerBf diluted in DMSO at 6 fold molar excess at 37° C. for 3 hrs in the presence of pepstatin, leupeptin, EDTA and TWEEN 20. Samples were concentrated using a 30K microconcentrator. Monomers were tetramerized by incubation with streptavidin-conjugated allophycocyanin (APC) (Molecular Probes, Inc., Eugene, Oreg.) at a 1:1 ratio. Staining was performed at room temperature for 1 hr. […] Viability was determined by staining cells with LIVE/DEAD fixable Aqua stain (Invitrogen Life Technologies, Carlsbad, Calif.) per manufacturer's instructions. […]
Synthetic CD1d tetramers were loaded with each sphingolipid, KRN7000 and α-GalCerBf), and the capability of the sphingolipid/CD1d-tetramer complex (hereafter called ‘tetramer’) to stain three NKT-cell-derived hybridomas was determined (see, e.g., Brossay et al., J. Immunol. […]
A general note: A flow cytometer gives signals particle by particle.

`CCCCCCCCCCCCCCCCCCCCCCCCCC(=O)N[C@@H](CO[C@H]1O[C@H](CO)[C@H](O)[C@H](O)[C@H]1O)[C@H](O)[C@H](O)CCCCCCCCCCCCCC` [KRN7000]: the “MFI (Median Fluorescence Intensity) of tetramer staining” value is, setting by setting: (DN3A4-1.2 (1.2) hybridoma) 2151; (DN3A4-1.4 (1.4) hybridoma) 683; (N38-2C12 (2C12) hybridoma) 8932.
